One series addresses T1, human CYP450 3A4 (Homo sapiens, UniProt P08684).
T1 construct: purchased BD Bioscience
Description: CYP450 inhibition assay, 3A4. It is filed as in vitro ADME. As for the experimental part:
(§1) Compound 52 was incubated with human CYP450 cDNA-expressed isoenzymes according to the protocol (BD Bioscience). For CYP2C9, a luminogenic substrate was used with the P450-Glo™ kit. In addition, the effect of the compound on CYP2C9-mediated diclofenac metabolism was measured by LC-UV. The potential inhibitory effect of the compound on human UGT1A1 was examined using human liver microsomes and bilirubin as substrate. The metabolites (mono- and di-glucuronidated bilirubin) were measured by LC-UV.

Series [1] concerns C-1a cell line (genotype 1a replicon selected with 25 nM, D168A). Description: Extent of resistance after selection, C-1a. It is filed as cell-based, HCV. The settings on record: selecting conc. 25 nM. As for the experimental part: (§2) Replicon cells (genotype 1a or 1b) were treated with various concentrations of compound 52 in the presence of G418. Treatment-emergent genotypic changes were identified by population sequencing of NS3 (both protease and helicase regions). The activity of compound 52 and other compounds was evaluated by NS5A western blot after selection or luciferase assay during and after selection.

In series [2] the test system is A-1a cell line (genotype 1a replicon selected with 10 nM, D168A). Description: Extent of resistance after selection, A-1a. It is filed as cell-based, HCV. The following applies: selecting conc. 10 nM. As for the experimental part: as §2
The target in another series is NS3-4A (Con1) (Hepatitis C virus genotype 1b, UniProt Q9WMX2). Description: Binding kinetics by surface plasmon resonance. Also noted: species or system HCV. As for the experimental part:
The binding kinetics of compound 52 to NS3-4A (Con1) was also determined using surface plasmon resonance.

The nature of another series: clinical. The following applies: human, in vivo; for Cmax / Tmax: 400 mg per day; for half-life: T1/2, 400 mg per day.
For a further series, the target named is T2, human CYP450 2C9 (Homo sapiens, UniProt P11712).
T2 construct: purchased BD Bioscience
T2 sequence (P11712 whole entry): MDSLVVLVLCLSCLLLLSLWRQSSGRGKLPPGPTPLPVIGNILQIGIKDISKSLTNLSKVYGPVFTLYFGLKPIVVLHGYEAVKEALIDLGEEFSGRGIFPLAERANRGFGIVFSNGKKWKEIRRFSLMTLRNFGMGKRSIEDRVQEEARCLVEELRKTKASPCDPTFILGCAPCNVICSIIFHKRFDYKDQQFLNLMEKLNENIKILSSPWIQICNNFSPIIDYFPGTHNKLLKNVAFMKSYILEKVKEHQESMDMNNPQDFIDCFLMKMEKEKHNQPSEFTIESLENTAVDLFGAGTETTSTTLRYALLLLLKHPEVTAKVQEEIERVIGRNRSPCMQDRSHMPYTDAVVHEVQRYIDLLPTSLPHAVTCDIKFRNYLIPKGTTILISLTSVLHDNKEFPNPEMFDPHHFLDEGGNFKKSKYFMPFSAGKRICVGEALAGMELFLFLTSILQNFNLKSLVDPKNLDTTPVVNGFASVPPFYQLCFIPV
Description: CYP450 inhibition assay, 2C9. In kind it is in vitro ADME. The method, then: as §1

The conditions of series [3]: mouse plasma.
In series [4] the test system is HCV Con1 subgenomic replicon in Huh-7 cells (GS4.1 cells). Description: HCV Replicon Assay (NS4A ELISA). It is filed as cell-based. The settings on record: Hepatitis C virus, 72 hr. The method, then:
Huh-7 cells containing HCV Con1 subgenomic replicon (GS4.1 cells) were grown in Dulbecco's Modified Eagle Medium (DMEM) supplemented with 10% fetal bovine serum (FBS), 2 mM L-glutamine, 110 mg/L sodium pyruvate, 1× non-essential amino acids, 100 U/mL penicillin-streptomycin, and 0.5 mg/mL G418 (Invitrogen). For dose-response testing, the cells were seeded in 96-well plates at 7.5×10^3 cells/well in a volume of 50 μL, and incubated at 37° C./5% CO2. Three hours after plating, 50 μL of ten 2-fold serial dilutions of compounds (highest concentration, 75 μM) were added, and cell cultures were incubated at 37° C./5% CO2 in the presence of 0.5% DMSO. Alternatively, compounds were tested at a single concentration of 15 μM. In all cases, Huh-7 cells lacking the HCV replicon served as negative control. The cells were incubated in the presence of compounds for 72 hr after which they were monitored for expression of the NS4A protein by enzyme-linked immunosorbent assay (ELISA). For this, the plates were then fixed for 1 min with acetone/methanol (1:1, v/v), washed twice with phosphate-buffered saline (PBS), 0.1% Tween 20, blocked for 1 hr at room temperature with TNE buffer containing 10% FBS and then incubated for 2 hr at 37° C. with the anti-NS4A mouse monoclonal antibody A-236 (ViroGen) diluted in the same buffer. After washing three times with PBS, 0.1% Tween 20, the cells were incubated 1 hr at 37° C. with anti-mouse immunoglobulin G-peroxidase conjugate in TNE, 10% FBS. After washing as described above, the reaction was developed with O-phenylenediamine (Zymed). The reaction was stopped after 30 min with 2 N H2SO4, and absorbance was read at 492 nm using Sunrise Tecan spectrophotometer. EC50 values were determined from the % inhibition versus concentration data using a sigmoidal non-linear regression analysis based on four parameters with Tecan Magellan software.

For a further series, the target named is T3, hERG channel (Homo sapiens, UniProt Q12809).
T3 construct: expressed in transfected cells; host or cells: HEK293
T3 sequence (Q12809 whole entry): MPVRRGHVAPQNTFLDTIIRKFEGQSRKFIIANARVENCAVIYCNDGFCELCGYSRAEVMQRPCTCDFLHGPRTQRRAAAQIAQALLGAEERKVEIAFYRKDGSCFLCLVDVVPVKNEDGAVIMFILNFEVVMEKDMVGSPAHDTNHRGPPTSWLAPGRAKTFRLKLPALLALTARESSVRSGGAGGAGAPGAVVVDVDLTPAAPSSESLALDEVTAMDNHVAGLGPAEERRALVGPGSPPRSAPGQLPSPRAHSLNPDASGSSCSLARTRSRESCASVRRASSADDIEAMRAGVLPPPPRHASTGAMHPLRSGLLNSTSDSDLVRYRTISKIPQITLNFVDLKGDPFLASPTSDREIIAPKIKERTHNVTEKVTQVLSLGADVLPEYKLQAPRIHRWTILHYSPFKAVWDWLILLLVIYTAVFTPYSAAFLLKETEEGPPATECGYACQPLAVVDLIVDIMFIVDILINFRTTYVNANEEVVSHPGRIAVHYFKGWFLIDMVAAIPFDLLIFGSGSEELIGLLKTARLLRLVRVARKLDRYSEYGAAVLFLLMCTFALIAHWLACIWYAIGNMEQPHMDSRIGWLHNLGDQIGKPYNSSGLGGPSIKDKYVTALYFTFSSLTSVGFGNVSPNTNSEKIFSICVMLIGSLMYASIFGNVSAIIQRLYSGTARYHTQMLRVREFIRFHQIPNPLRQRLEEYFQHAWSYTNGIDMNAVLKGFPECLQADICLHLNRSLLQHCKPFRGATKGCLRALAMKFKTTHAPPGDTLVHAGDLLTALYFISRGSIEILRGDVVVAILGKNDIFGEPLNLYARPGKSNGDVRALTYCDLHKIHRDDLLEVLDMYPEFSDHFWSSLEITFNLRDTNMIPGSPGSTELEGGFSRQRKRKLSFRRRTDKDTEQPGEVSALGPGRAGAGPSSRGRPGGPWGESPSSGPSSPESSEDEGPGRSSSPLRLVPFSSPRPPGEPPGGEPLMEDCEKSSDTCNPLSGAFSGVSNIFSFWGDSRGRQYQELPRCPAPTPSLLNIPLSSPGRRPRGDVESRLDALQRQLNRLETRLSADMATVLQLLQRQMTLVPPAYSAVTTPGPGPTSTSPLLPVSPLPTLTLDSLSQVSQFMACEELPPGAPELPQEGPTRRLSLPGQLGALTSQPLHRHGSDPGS
Description: hERG channel currents in voltage-clamped HEK293 cells. In kind it is cell-based. From the text: One in vitro GLP safety pharmacology study evaluated the effects of compound 52 on hERG channel currents in voltage-clamped human embryonic kidney cells (HEK293) stably expressing the human ether-à-go-go-related gene (hERG) channel. Four in vivo GLP safety pharmacology studies evaluated the potential effects of the compound on the cardiovascular and respiratory systems in the cynomolgus monkey and on the central nervous, renal, and gastrointestinal systems in the CD-1 mouse at single oral doses up to 250 mg/kg of compound 52.

The next series relates to monkeys. The following applies: oral doses up to 250 mg/kg. The method, then: (§3) Daily oral doses of compound 52 (up to 250 mg/kg/day) in PEG 400 were administered to both mice and monkeys for 28 consecutive days. Toxicity was evaluated based on mortality, clinical observations, body weights, food consumption, ophthalmological examination, hematology and serum chemistry, organ weights, gross and microscopic examinations. ECG, coagulation and urinalysis were also performed in the monkey study.

A further series deals with mice. The following applies: mouse, in vivo. The method, then:
as §3

The conditions of series [5]: monkey plasma.
For series [6] the following is noted: human, in vivo.
Series [7] can be described thus: Cytotoxicity in parallel, colorimetric proliferation assay, 1b replicon cells. In kind it is cell-based. The following applies: human, replicon cells (genotype 1b).
For another series, the system named is CD-1 mice. In kind it is in vivo. The settings on record: oral doses up to 2,000 mg/kg. The method, then: The potential for compound 52 to induce mutations in a bacterial system (S. typhimurium and E. coli—at concentrations up to 5,000 μg/plate), to induce chromosomal aberrations in cultures of human peripheral blood lymphocytes (at concentrations up to 84 μg/mL), and to induce clastogenic and/or aneugenic activity in CD-1 mice (at oral doses up to 2,000 mg/kg) was evaluated. The two in vitro studies were performed with and without the addition of a mammalian metabolic activation system (rat liver S9 subcellular fraction).

The conditions of series [8]: human plasma.

Structures are written as SMILES. Like-named read-outs stand apart in the source and are kept apart here.

Sequence of NS3-4A (Con1) (Q9WMX2 1027-1657): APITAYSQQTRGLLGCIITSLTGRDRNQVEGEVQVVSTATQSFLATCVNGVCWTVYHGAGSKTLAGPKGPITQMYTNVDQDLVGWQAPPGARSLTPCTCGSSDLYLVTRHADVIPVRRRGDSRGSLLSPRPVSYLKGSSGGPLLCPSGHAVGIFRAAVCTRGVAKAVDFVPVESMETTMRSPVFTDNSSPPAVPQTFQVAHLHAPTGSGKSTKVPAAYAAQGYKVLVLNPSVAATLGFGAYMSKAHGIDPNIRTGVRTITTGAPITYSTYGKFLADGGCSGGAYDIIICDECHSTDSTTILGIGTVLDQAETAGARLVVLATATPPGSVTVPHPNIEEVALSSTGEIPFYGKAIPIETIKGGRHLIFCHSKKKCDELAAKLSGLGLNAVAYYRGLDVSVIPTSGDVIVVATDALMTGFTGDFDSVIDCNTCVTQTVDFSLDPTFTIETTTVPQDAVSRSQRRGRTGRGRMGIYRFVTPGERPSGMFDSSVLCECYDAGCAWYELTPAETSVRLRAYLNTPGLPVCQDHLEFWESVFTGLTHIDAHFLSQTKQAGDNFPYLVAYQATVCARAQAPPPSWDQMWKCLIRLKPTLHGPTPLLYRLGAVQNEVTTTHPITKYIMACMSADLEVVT
Sequence of NS3-4A (Con1) (Q9WMX2 1658-1711): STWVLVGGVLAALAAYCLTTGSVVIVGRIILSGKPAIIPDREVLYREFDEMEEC
T1 sequence (P08684 whole entry): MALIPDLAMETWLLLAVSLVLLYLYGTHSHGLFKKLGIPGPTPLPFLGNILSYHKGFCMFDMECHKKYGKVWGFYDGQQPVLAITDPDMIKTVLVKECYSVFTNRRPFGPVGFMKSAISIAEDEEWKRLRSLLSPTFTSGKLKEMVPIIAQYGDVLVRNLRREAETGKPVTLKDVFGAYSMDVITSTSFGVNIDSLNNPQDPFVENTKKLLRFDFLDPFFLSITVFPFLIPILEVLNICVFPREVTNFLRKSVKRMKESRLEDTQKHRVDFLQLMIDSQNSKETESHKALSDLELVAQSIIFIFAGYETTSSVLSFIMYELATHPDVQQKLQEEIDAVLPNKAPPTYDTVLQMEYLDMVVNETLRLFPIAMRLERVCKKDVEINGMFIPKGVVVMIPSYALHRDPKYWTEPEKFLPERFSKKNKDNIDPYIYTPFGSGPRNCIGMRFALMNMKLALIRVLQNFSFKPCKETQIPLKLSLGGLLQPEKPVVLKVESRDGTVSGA

A word on the IC50: it is the midpoint of a concentration-inhibition curve. Usually Cmax stands for the highest concentration seen after dosing. As a reminder, the half-life is the time in which the quantity being followed falls by half. A word on the Tmax: it is the time from dosing to the highest level. Usually EC50 stands for the midpoint of the concentration-response curve. The CC50 is the concentration giving 50% cytotoxicity. Regarding `COc1ccc2c(O[C@H]3CCN4C(=O)N(C)CCCC/C=C\[C@@H]5C[C@@]5(C(=O)NS(=O)(=O)C5(C)CC5)NC(=O)[C@@H]4C3)cc(-c3nc(C(F)(F)F)cs3)nc2c1C` [Compound 52, 1-methyl-cyclopropanesulfonic acid{(Z)-(1S,4R,6S,18S)-18-[7-methoxy-8-methyl-2-(4-trifluoromethyl-thiazol-2-yl)-quinolin-4-yloxy]-13-methyl-2,14-dioxo-3,13,15-triaza-tricyclo[13.4.0.0*4,6*]nonadec-7-ene-4-carbonyl}amide], the IC50 on human CYP450 3A4 and against human CYP450 2C9 was not below 10 µM throughout. In addition, the figures for the Fold-Change in series [1] and in [2] were 900 ± 64 and 589 ± 442, respectively. In addition, the kon on NS3-4A (Con1) (read-out: association rate) was 27000 M⁻¹ s⁻¹. Also, the koff on NS3-4A (Con1) (read-out: dissociation rate) amounted to 2.1e-05 s⁻¹. On NS3-4A (Con1) (read-out: equilibrium constant), the Kd was found to be 0.0008 µM. Besides, the Cmax in the series “clinical” (PK Day 1) came to 1.15 ± 0.381 µg/mL; in “clinical” (PK Day 3), 1.37 ± 0.345 µg/mL. Moreover, the half-life was 12 ± 2 h in “clinical” (PK Day 1) and 31 ± 8 h in the series “clinical” (PK Day 3). Also, the Tmax in “clinical” (PK Day 1) worked out at 3 h; in “clinical” (PK Day 3), 3.5 h. The “protein bound in plasma” value in [3] turned out to be 99.2%; in series [5] it was 99.9%; in series [8] it was 99.6%. Besides, in series [4], the EC50 is less than 1 µM. Also, the “effect on cardiac hERG potassium channel current” value at hERG channel is given as “did not affect”. In addition, the “tolerability in 4-week GLP toxicology study” value with monkeys and with mice was “well tolerated” each time. In [6], this compound yielded a C24 hr of 0.008 ± 0.005 µg/mL. Further, in [7], the CC50 at 5 days is 25.2 ± 5.3 µM. Moreover, the “genotoxicity, mouse micronucleus test” value in the series with CD-1 mice is given as “no genotoxicity”.

(Values after patent publication US8993595B2, “Macrocyclic serine protease inhibitors” (priority 2009, dated 2015).)
